In patent US11000038B2, “Pyridone compounds and agricultural and horticultural fungicides containing the same as active ingredients” (priority 2017, dated 2021) one finds pest or weed control data, which are given here for 11 compounds.

Experiment [1] deals with rice blast fungi (Magnaporthe grisea). The experiment can be described thus: whole plant or invertebrate. Type of experiment: in vivo. The note with it: Pyricularia oryzae, read-out: Test A control value class (rice blast).
Experiment [2] deals with cabbage Alternaria sooty spot fungi (Alternaia brassicicola). Nature of the experiment: Test Example C: cabbage Alternaria sooty spot, spray treatment of cabbage plants. Type of experiment: in vivo. The note with it: control value=100{1-(n/3)}, read-out: Test C control value class (cabbage Alternaria sooty spot). From the text:
[Test Example C] Cabbage Alternaria Sooty Spot
Test plants (cabbage variety: Shikidori) were cultivated until the cotyledons extended after the sowing of seeds.
<Control Value> Control value=100{1−(n/3)}

Experiment [3] has as its system wheat brown rust fungi (Puccinia recondita). Nature of the experiment: Test Example E: wheat brown rust, spray treatment of wheat plants. Type of experiment: in vivo. The note with it: control value=100{1-(n/3)}, read-out: Test E control value class (wheat brown rust).
In experiment [4] the test system is tomato late blight fungi (Phytophthora infestans). Nature of the experiment: whole plant or invertebrate. Type of experiment: in vivo. To be noted: read-out: Test F control value class (tomato late blight).
Experiment [5] has as its system gray mold fungi (Botrytis cinerea). Nature of the experiment: Test Example B: tomato gray mold, spray treatment of tomato plants. To be noted: in Solanum lycopersicum, read-out: Test B control value class (tomato gray mold).
Excerpt: [Test Example B] Tomato Gray Mold
Test plants (tomato variety: Oogata Fukuju) were cultivated until three to five first leaves (true leaves) appeared after the sowing of seeds. In the test, the chemical solution was obtained by dissolving the compound of the present invention in a dimethylsulfoxide-methanol mixed solvent (volume ratio: 9/1) and appropriately diluting the resultant solution with well water so that the concentration was 250 ppm. The obtained chemical solution was sprayed to the test plants (2.5 ml/pot). The plants after the drying of the chemical liquid were inoculated with gray mold fungi (Botrytis cinerea) by spraying a conidial suspension of 4 to 8×10^5 conidia/ml. After the inoculation, the plants were allowed to stand, for about 48 hours, in a moist chamber with the room temperature of 20 to 23° C. to promote the onset of disease. The degree of disease development after 2 to 3 days from the inoculation was investigated to evaluate the effect of the chemical solution.
(§1) With respect to each Test Example described above, the degree of disease development was evaluated as a value with increments of 0.05, regarding the degree of disease development for plants with no onset of disease as 0 and that for plants of untreated group as 3. Further, from the degrees of disease development, a control value was calculated according to the calculation formula below.
(§2) n=Degree of disease development of each chemical treated group
The subject of experiment [6] is grape downy mildew fungus (Plasmopara viticola). Nature of the experiment: Test Example G: grape downy mildew, spray treatment of grape plants. The note with it: read-out: Test G control value class (grape downy mildew).
Description: Test plants (grape variety: Neomuscat) were cultivated until three to four first leaves appeared after the sowing of seeds. In the test, the chemical solution was obtained by dissolving the compound of the present invention in a dimethylsulfoxide-methanol mixed solvent (volume ratio: 9/1) and appropriately diluting the resultant solution with well water so that the concentration was 250 ppm. The obtained chemical solution was sprayed to the test plants (2.5 ml/pot). The plants after the drying of the chemical liquid were inoculated with grape downy mildew fungus (Plasmopara viticola) by spraying a zoosporangial suspension of 1 to 2×10^4 zoosporangia/ml. After the inoculation, the plants were allowed to stand, for about 24 hours, in a moist chamber with the room temperature of 20° C. to promote the onset of disease. The degree of disease development after 7 to 10 days from the inoculation was investigated to evaluate the effect of the chemical solution.
as §1, §2
Experiment [7] relates to cucumber anthracnose fungi (Colletotrichum orbiculare). Nature of the experiment: Test Example H: cucumber anthracnose, spray treatment of cucumber plants. The note with it: in Cucumis sativus, read-out: Test H control value class (cucumber anthracnose).
Description: [Test Example H] Cucumber Anthracnose
Test plants (cucumber variety: Sagami Hanjiro) were cultivated until one first leaf appeared after the sowing of seeds. In the test, the chemical solution was obtained by dissolving the compound of the present invention in a dimethylsulfoxide-methanol mixed solvent (volume ratio: 9/1) and appropriately diluting the resultant solution with well water so that the concentration was 250 ppm. The obtained chemical solution was sprayed to the test plants (2.5 ml/pot). The plants after the drying of the chemical liquid were inoculated with cucumber anthracnose fungi (Colletotrichum orbiculare) by spraying a conidial suspension of 2 to 4×10^5 conidia/ml. After the inoculation, the plants were allowed to stand, for about 24 hours, in a moist chamber with the room temperature of 20 to 23° C. to promote the onset of disease. The degree of disease development after 6 to 10 days from the inoculation was investigated to evaluate the effect of the chemical solution.
as §1, §2

Turning to `O=c1c(Br)cn(-c2ccccc2Cl)c(-c2c(F)cc(F)cc2F)c1Br` [Compound 1, 3,5-dibromo-1-(2-chlorophenyl)-2-(2,4,6-trifluorophenyl)pyridin-4(1H)-one], the pest or weed control at 250 µg/mL in experiment [1] is above 50%; in experiment [2], above 50%; in experiment [3], above 50%; in experiment [4] it was below 50%; in experiment [5], above 50%. The pest or weed control at 250 ppm in experiment [6] and in experiment [7] was above 50% in each case.

On to `O=c1c(Br)cn(-c2ccccc2Cl)c(-c2c(F)cc(F)cc2F)c1Cl` [Compound 2, 5-bromo-3-chloro-1-(2-chlorophenyl)-2-(2,4,6-trifluorophenyl)pyridin-4(1H)-one], for which the pest or weed control at 250 µg/mL in experiment [1] was above 50%; in experiment [2] it was above 50%; in experiment [3], above 50%; in experiment [4], below 50%; in experiment [5], above 50%. The pest or weed control at 250 ppm in experiment [6] and in experiment [7] was above 50% each time.

`O=c1c(Cl)cn(-c2ccccc2Cl)c(-c2c(F)cc(F)cc2F)c1Cl` [Compound 4, 3,5-dichloro-1-(2-chlorophenyl)-2-(2,4,6-trifluorophenyl)pyridin-4(1H)-one]: the pest or weed control at 250 µg/mL is above 50% in experiment [1]; above 50% in experiment [2]; above 50% in experiment [3]; below 50% in experiment [4]; above 50% in experiment [5]. Moreover, the pest or weed control at 250 ppm in experiment [6] and in experiment [7] was above 50% in each case.

Regarding `COc1cc(F)c(-c2c(Cl)c(=O)c(Cl)cn2-c2ccccc2Cl)c(F)c1` [Compound 5, 3,5-dichloro-1-(2-chlorophenyl)-2-(2,6-difluoro-4-methoxyphenyl)pyridin-4(1H)-one], the pest or weed control at 250 µg/mL is above 50% in experiment [1]; above 50% in experiment [2]; above 50% in experiment [3]; below 50% in experiment [4]; above 50% in experiment [5]. Also, the pest or weed control at 250 ppm in experiment [6] and in experiment [7] was above 50% in each case.

Take `O=c1c(Br)cn(-c2cccnc2Cl)c(-c2c(F)cc(F)cc2F)c1Br` [Compound 38, 3,5-dibromo-2′-chloro-2-(2,4,6-trifluorophenyl)-4H-[1,3′-bipyridin]-4-one]: the pest or weed control at 250 µg/mL in experiment [1], in experiment [2], in experiment [3], in experiment [4] and in experiment [5] was above 50% in each case. The pest or weed control at 250 ppm in experiment [6] and in experiment [7] was above 50% each time.

Consider `O=c1c(Cl)cn(Cc2ccccc2)c(-c2c(F)cc(F)cc2F)c1Br` [Compound 49, 1-benzyl-3-bromo-5-chloro-2-(2,4,6-trifluorophenyl)pyridin-4(1H)-one], for which the pest or weed control at 250 µg/mL in experiment [1], in experiment [2], in experiment [3], in experiment [4] and in experiment [5] was above 50% in each case. The pest or weed control at 250 ppm in experiment [6] and in experiment [7] was above 50% in each case.

As for `Cc1cc(-n2cc(Cl)c(=O)c(Br)c2-c2c(F)cc(F)cc2F)no1` [Compound 141, 3-bromo-5-chloro-1-(5-methylisoxazol-3-yl)-2-(2,4,6-trifluorophenyl)pyridin-4(1H)-one], the pest or weed control at 250 µg/mL in experiment [1] is below 50%; in experiment [2], above 50%; in experiment [3] it was above 50%; in experiment [4] it was below 50%; in experiment [5], above 50%. Besides, the pest or weed control at 250 ppm in experiment [6] and in experiment [7] was below 50% each time.

On to `Cc1onc(-n2cc(Cl)c(=O)c(Br)c2-c2c(F)cc(F)cc2F)c1Br` [Compound 142, 3-bromo-1-(4-bromo-5-methylisoxazol-3-yl)-5-chloro-2-(2,4,6-trifluorophenyl)pyridin-4(1H)-one], for which the pest or weed control at 250 µg/mL in experiment [1], in experiment [2], in experiment [3], in experiment [4] and in experiment [5] was above 50% each time. The pest or weed control at 250 ppm in experiment [6] and in experiment [7] was above 50% throughout.

For `CCC(C)Cn1cc(Cl)c(=O)c(Cl)c1-c1c(F)cc(F)cc1F` (centres unmarked) [Compound 162, 3,5-dichloro-1-(2-methylbutyl)-2-(2,4,6-trifluorophenyl)pyridin-4(1H)-one], the pest or weed control at 250 µg/mL in experiment [1] is above 50%; in experiment [2], above 50%; in experiment [3] it was above 50%; in experiment [4] it was below 50%; in experiment [5], above 50%. Also, the pest or weed control at 250 ppm in experiment [6] and in experiment [7] was above 50% in each case.

On to `Cc1ccccc1-n1cc(C)c(=O)c(C)c1-c1c(F)cc(F)cc1F` [Compound 174, 3,5-dimethyl-1-(o-toluyl)-2-(2,4,6-trifluorophenyl)pyridin-4(1H)-one], for which the pest or weed control at 250 µg/mL in experiment [1] was above 50%; in experiment [2] it was above 50%; in experiment [3] it was above 50%; in experiment [4], below 50%; in experiment [5], above 50%. Moreover, the pest or weed control at 250 ppm in experiment [6] and in experiment [7] was above 50% each time.

On to `COc1cc(F)c(-c2c(C)c(=O)c(C)cn2-c2ccccc2C)c(F)c1` [Compound 175, 2-(2,6-difluoro-4-methoxyphenyl)-3,5-dimethyl-1-(o-toluyl)pyridin-4(1H)-one], for which the pest or weed control at 250 µg/mL is above 50% in experiment [1]; above 50% in experiment [2]; above 50% in experiment [3]; below 50% in experiment [4]; above 50% in experiment [5]. The pest or weed control at 250 ppm in experiment [6] and in experiment [7] was above 50% each time.
